Data on 26 compounds can be found in patent US10414763B2 (CANCER RESEARCH TECHNOLOGY LIMITED, priority 2014, dated 2019).

SMILES strings stand for the structures.

This test deals with T1, full-length human PKCι (Homo sapiens, UniProt P41743).
T1 construct: Recombinant, full-length human PKCι expressed in Sf21 insect cells is also commercially available; purchased EMD Millipore; host or cells: Sf21 insect cells (baculovirus)
T1 sequence (P41743 1-596): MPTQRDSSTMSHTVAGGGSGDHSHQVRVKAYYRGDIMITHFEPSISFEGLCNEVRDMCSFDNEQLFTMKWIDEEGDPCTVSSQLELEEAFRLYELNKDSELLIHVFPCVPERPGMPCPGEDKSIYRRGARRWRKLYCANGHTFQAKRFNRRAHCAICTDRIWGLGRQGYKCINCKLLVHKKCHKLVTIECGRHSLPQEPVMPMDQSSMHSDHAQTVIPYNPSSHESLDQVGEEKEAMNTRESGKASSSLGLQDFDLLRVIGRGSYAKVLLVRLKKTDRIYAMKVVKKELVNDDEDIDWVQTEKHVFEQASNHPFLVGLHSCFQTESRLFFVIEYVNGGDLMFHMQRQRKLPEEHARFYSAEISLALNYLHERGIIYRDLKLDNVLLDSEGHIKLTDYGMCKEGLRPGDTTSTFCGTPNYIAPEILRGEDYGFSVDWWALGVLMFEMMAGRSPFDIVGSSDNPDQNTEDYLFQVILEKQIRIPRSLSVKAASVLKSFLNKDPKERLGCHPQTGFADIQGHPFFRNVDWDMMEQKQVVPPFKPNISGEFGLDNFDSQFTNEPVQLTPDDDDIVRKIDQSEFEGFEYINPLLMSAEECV
Description: PKCι IC50 IMAP fluorescence polarisation assay, full-length enzyme, 150 μM ATP. It is filed as biochemical. Particulars: read-out: IC50 in IMAP assay against full length PKCi at 150 μM ATP. In short, it runs like this: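 IMAP fluorescence polarisation kinase assay: 15 pM baculovirus-expressed human PKCiota with 100 nM FAM-pseudosubstrate peptide and 150 μM ATP, 1 h at 25 °C. IMAP detection reagent then 2 h at 25 °C before FP measurement. Inhibition referenced to no-compound and no-enzyme controls for IC50 fitting.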
A general note: Polarisation of emitted light reports the rotation of a fluorescent probe.
On to `NC1CCN(c2nc(-c3ccnc4[nH]c5ccccc5c34)nc3cncc(C(F)(F)F)c23)C1` (centres unmarked) [Example 221, 1-[2-(9H-Pyrido[2,3-b]indol-4-yl)-5-trifluoromethyl-pyrido[3,4-d]pyrimidin-4-yl]-pyrrolidin-3-ylamine], for which the IC50 was in the range of 0.1 to 1 µM.

`Fc1ccc(Cl)c(-c2cc3c(-c4nc(N5CCNCC5)c5c(C6CC6)cncc5n4)ccnc3[nH]2)c1` [Example 222, 2-[2-(2-Chloro-5-fluoro-phenyl)-1H-pyrrolo[2,3-b]pyridin-4-yl]-5-cyclopropyl-4-piperazin-1-yl-pyrido[3,4-d]pyrimidine]: the IC50 is < 0.1 µM.

On to `CC1(C)CNCC[C@@H]1Nc1nc(-c2ccnc3[nH]c(C(F)(F)F)cc23)nc2cncc(C3CC3)c12` [Example 227, [5-Cyclopropyl-2-(2-trifluoromethyl-1H-pyrrolo[2,3-b]pyridin-4-yl)-pyrido[3,4-d]pyrimidin-4-yl]-((S)-3,3-dimethyl-piperidin-4-yl)-amine], for which the IC50 is < 0.1 µM.

`CC1(C)CNCC[C@@H]1Nc1nc(-c2ccnc3[nH]c(C(F)(F)F)cc23)nc2cncc(C3CCC3)c12` [Example 228, [5-Cyclobutyl-2-(2-trifluoromethyl-1H-pyrrolo[2,3-b]pyridin-4-yl)-pyrido[3,4-d]pyrimidin-4-yl]-((S)-3,3-dimethyl-piperidin-4-yl)-amine]: the IC50 was < 0.1 µM.

As to `CC1(C)CNCC[C@@H]1Nc1nc(-c2ccnc3[nH]c(-c4cc(F)ccc4Cl)cc23)nc2cncc(C3CC3)c12` [Example 229, {2-[2-(2-Chloro-5-fluoro-phenyl)-1H-pyrrolo[2,3-b]pyridin-4-yl]-5-cyclopropyl-pyrido[3,4-d]pyrimidin-4-yl}-((S)-3,3-dimethyl-piperidin-4-yl)-amine], the IC50 was < 0.1 µM.

For `FC1CNCCC(Nc2nc(-c3ccnc4[nH]c5ccccc5c34)nc3cncc(C4CCC4)c23)C1` (centres unmarked) [Example 232, [5-Cyclobutyl-2-(9H-pyrido[2,3-b]indol-4-yl)-pyrido[3,4-d]pyrimidin-4-yl]-(6-fluoro-azepan-4-yl)-amine], the IC50 was < 0.1 µM.

Regarding `c1ccc(-n2cnc(Nc3cc(-c4nc(N5CCC6CNCCC65)c5c(C6CC6)cncc5n4)ccn3)n2)cc1` (centres unmarked) [Example 235, [4-[5-Cyclopropyl-4-(octahydro-pyrrolo[3,2-c]pyridin-1-yl)-pyrido[3,4-d]pyrimidin-2-yl]-pyridin-2-yl}-(1-phenyl-1H-1,2,4-triazol-3-yl)-amine], the IC50 is < 0.1 µM.

Take `O[C@]12CCN(c3nc(-c4ccnc(Nc5ncn(-c6ccccc6)n5)c4)nc4cncc(C5CC5)c34)[C@H]1CCNC2` [Example 236]: the IC50 is < 0.1 µM.

For `c1ccc(Cn2cnc(Nc3cc(-c4nc(N5CCC6CNCCC65)c5c(C6CC6)cncc5n4)ccn3)n2)cc1` (centres unmarked) [Example 239, (1-Benzyl-1H-1,2,4-triazol-3-yl)-{4-[5-cyclopropyl-4-(octahydro-pyrrolo[3,2-c]pyridin-1-yl)-pyrido[3,4-d]pyrimidin-2-yl]-pyridin-2-yl}-amine], the IC50 is < 0.1 µM.

`CC1(C)CNCC[C@@H]1Nc1nc(-c2ccnc(Nc3nc4ccccn4n3)c2)nc2cncc(C3CC3)c12` [Example 241, [5-Cyclopropyl-2-[2-([1,2,4]triazolo[1,5-a]pyridin-2-ylamino)-pyridin-4-yl]-pyrido[3,4-d]pyrimidin-4-yl}-((S)-3,3-dimethyl-piperidin-4-yl)-amine]: the IC50 was < 0.1 µM.

For the compound `CC1(C)CNCC[C@@H]1Nc1nc(-c2ccnc(Nc3ncn(Cc4ccccc4)n3)c2)nc2cncc(C3CC3)c12` [Example 242, {2-[2-(1-Benzyl-1H-1,2,4-triazol-3-ylamino)-pyridin-4-yl]-5-cyclopropyl-pyrido[3,4-d]pyrimidin-4-yl}-((S)-3,3-dimethyl-piperidin-4-yl)-amine], the IC50 was < 0.1 µM.

In the case of `CC1(C)CNCC[C@@H]1Nc1nc(-c2ccnc(Nc3ncn(-c4ccccc4)n3)c2)nc2cncc(C3CC3)c12` [Example 243, {5-Cyclopropyl-2-[2-(1-phenyl-1H-1,2,4-triazol-3-ylamino)-pyridin-4-yl]-pyrido[3,4-d]pyrimidin-4-yl}-((S)-3,3-dimethyl-piperidin-4-yl)-amine], the IC50 was < 0.1 µM.

As to `c1ccn2nc(Nc3cc(-c4nc(N5CCC6NCCCC65)c5c(C6CC6)cncc5n4)ccn3)nc2c1` (centres unmarked) [Example 244, {4-[5-Cyclopropyl-4-(octahydro-pyrrolo[3,2-b]pyridin-1-yl)-pyrido[3,4-d]pyrimidin-2-yl]-pyridin-2-yl}-[1,2,4]triazolo[1,5-a]pyridin-2-yl-amine], the 50% inhibitory concentration (IC50) was < 0.1 µM.

As to `c1ccc(-n2cnc(Nc3cc(-c4nc(N5CCC6NCCCC65)c5c(C6CC6)cncc5n4)ccn3)n2)cc1` (centres unmarked) [Example 245, {4-[5-Cyclopropyl-4-(octahydro-pyrrolo[3,2-b]pyridin-1-yl)-pyrido[3,4-d]pyrimidin-2-yl]-pyridin-2-yl}-(1-phenyl-1H-1,2,4-triazol-3-yl)-amine], the IC50 was < 0.1 µM.

Regarding `NC[C@@H]1CCN(c2nc(-c3ccnc4[nH]c5ccccc5c34)nc3cncc(C4CCC4)c23)C1` [Example 248, C-{(S)-1-[5-Cyclobutyl-2-(9H-pyrido[2,3-b]indol-4-yl)-pyrido[3,4-d]pyrimidin-4-yl]-pyrrolidin-3-yl}-methylamine], the IC50 was < 0.1 µM.

`NC[C@H]1CCN(c2nc(-c3ccnc4[nH]c5ccccc5c34)nc3cncc(C4CCC4)c23)C1` [Example 249, C-{(R)-1-[5-Cyclobutyl-2-(9H-pyrido[2,3-b]indol-4-yl)-pyrido[3,4-d]pyrimidin-4-yl]-pyrrolidin-3-yl}-methylamine]: the IC50 is < 0.1 µM.

Consider `c1ccc2c(c1)[nH]c1nccc(-c3nc(N4CCC5(CCCNC5)C4)c4c(C5CCC5)cncc4n3)c12` (centres unmarked) [Example 250, 4-[5-Cyclobutyl-4-(2,7-diaza-spiro[4.5]dec-2-yl)-pyrido[3,4-d]pyrimidin-2-yl]-9H-pyrido[2,3-b]indole], for which the IC50 was < 0.1 µM.

With `c1ccc2c(c1)[nH]c1nccc(-c3nc(NCC4COCCN4)c4c(C5CCC5)cncc4n3)c12` (centres unmarked) [Example 251, [5-Cyclobutyl-2-(9H-pyrido[2,3-b]indol-4-yl)-pyrido[3,4-d]pyrimidin-4-yl]-morpholin-3-ylmethyl-amine], the IC50 lay within 1 to 10 µM.

As for `O[C@@H]1CCN(c2nc(-c3ccnc4[nH]c5ccccc5c34)nc3cncc(C4CCC4)c23)C1` [Example 252, (R)-1-[5-Cyclobutyl-2-(9H-pyrido[2,3-b]indol-4-yl)-pyrido[3,4-d]pyrimidin-4-yl]-pyrrolidin-3-ol], the IC50 fell in the range of 1 to 10 µM.

Turning to `O[C@H]1CCN(c2nc(-c3ccnc4[nH]c5ccccc5c34)nc3cncc(C4CCC4)c23)C1` [Example 253, (S)-1-[5-Cyclobutyl-2-(9H-pyrido[2,3-b]indol-4-yl)-pyrido[3,4-d]pyrimidin-4-yl]-pyrrolidin-3-ol], the IC50 was in the range of 1 to 10 µM.

Turning to `CC1(C)CNCC[C@@H]1Nc1nc(-c2ccnc(Nc3c(F)cccc3F)c2)nc2cncc(C3CC3)c12` [Example 254, {5-Cyclopropyl-2-[2-(2,6-difluoro-phenylamino)-pyridin-4-yl]-pyrido[3,4-d]pyrimidin-4-yl}-((S)-3,3-dimethyl-piperidin-4-yl)-amine], the IC50 is < 0.1 µM.

With `CC1(C)CNCC[C@@H]1Nc1nc(-c2ccnc(Nc3c(F)cccc3F)c2)nc2cncc(C3CCC3)c12` [Example 255, {5-Cyclobutyl-2-[2-(2,6-difluoro-phenylamino)-pyridin-4-yl]-pyrido[3,4-d]pyrimidin-4-yl}-((S)-3,3-dimethyl-piperidin-4-yl)-amine], the IC50 was < 0.1 µM.

For the compound `Fc1ccc(F)c(Nc2cc(-c3nc(N4CCOC5CNCC54)c4c(C5CCC5)cncc4n3)ccn2)n1` (centres unmarked) [Example 256, {4-[5-Cyclobutyl-4-(hexahydro-pyrrolo[3,4-b]-1,4-oxazin-4-yl)-pyrido[3,4-d]pyrimidin-2-yl]-pyridin-2-yl}-(3,6-difluoro-pyridin-2-yl)-amine], the IC50 was < 0.1 µM.

With `Cc1cc2c(-c3nc(N4CCOC5CNCC54)c4c(C5CCC5)cncc4n3)ccnc2[nH]1` (centres unmarked) [Example 257, 5-Cyclobutyl-4-(hexahydro-pyrrolo[3,4-b]-1,4-oxazin-4-yl)-2-(2-methyl-1H-pyrrolo[2,3-b]pyridin-4-yl)-pyrido[3,4-d]pyrimidine], the IC50 was < 0.1 µM.

As for `Fc1cccc(F)c1Nc1cc(-c2nc(N3CCOC4CNCC43)c3c(C4CCC4)cncc3n2)ccn1` (centres unmarked) [Example 258, {4-[5-Cyclobutyl-4-(hexahydro-pyrrolo[3,4-b]-1,4-oxazin-4-yl)-pyrido[3,4-d]pyrimidin-2-yl]-pyridin-2-yl}-(2,6-difluoro-phenyl)-amine], the IC50 was < 0.1 µM.

Consider `Fc1cccnc1-c1cc2c(-c3nc(N4CCOC5CNCC54)c4c(C5CCC5)cncc4n3)ccnc2[nH]1` (centres unmarked) [Example 259, 5-Cyclobutyl-2-[2-(3-fluoro-pyridin-2-yl)-1H-pyrrolo[2,3-b]pyridin-4-yl]-4-(hexahydro-pyrrolo[3,4-b]-1,4-oxazin-4-yl)-pyrido[3,4-d]pyrimidine], for which the IC50 was < 0.1 µM.

The term IC50 denotes the concentration needed to halve the response being measured.
